How the values were obtained:
[1] = Hydrazone formation kinetics under pseudo-first order conditions in 1×PBS at 37° C.; conditions: carbonyl acetaldehyde
Description: The carboxylic acid ortho to the hydrazine is critical to the stability of the formed hydrazone product. All reactions were performed in 1×PBS at 37° C., and points represent mean±s.d. for n=3 trials. […]

[2] = Hydrazone formation kinetics and reaction completion in 1×PBS at 37° C.; conditions: for kobs: pseudo-first order, carbonyl o-sulfobenzaldehyde
Description: (§1) The hydrazone peak is shown (r.t.=17.5 min for MeONA^3 and 17.2 min for MeOPH) at the time points indicated, showing a loss of the MeOPH-derived hydrazone but stability of the MeONA^3-derived product over time. All reactions were performed in 1×PBS at 37° C., and points represent mean±s.d. for n=3 trials
FIG. 13, discussed above, illustrates that the o-carboxylic acid contributes to substantial reaction completion as well as extended stability of the product hydrazone under physiological conditions. […] The hydrazone peak is shown (r.t.=17.5 min for 2f and 17.2 min for MeOPH) at the time points indicated. All reactions were performed in 1×PBS at 37° C., and points represent mean±s.d. for n=3 trials.
(§2) Repeating the methodology, however at 37° C. in 100% 1×PBS, determined the kobs for the reaction of 5-methoxy N-amino anthranilic acid (2f) and related analogs with 2-formylbenzenesulfonic acid (FIG. 13) and acetone.
(§3) Hydrazone stability was assayed both spectrophotometrically (FIG. 13, Panel A), as well as by HPLC (FIG. 13, Panel B). […] Since the signal produced by Hydrazo-CEST depends on the hydrazone form of the probe, the faster-forming and longer-lived the hydrazone product under physiological conditions, the better the imaging signal evolved and the more potentially sensitive the imaging technique.

[3] = as above
Description: as §2, §3

[4] = Hydrazone formation with glucose under physiological conditions (interference test); conditions: 37° C., 1 PBS, pH=7.4, within 4 h of incubation
[5] = Z-spectra / CEST signal production (% MTRasym) on 300 MHz NMR; conditions: for CEST-MRI signal generation (in words): Z-spectra, 37° C., pH 7.4, 40 mM; for CEST signal production: hydrazone with o-sulfobenzaldehyde, Z-spectrum (FIG. 19)
Description: FIG. 27 provides Z-spectra of compounds 8b, 10a, 12, and 11 for Panels A to D, respectively. […] The absence of the hydrazone proton through the formation of a pyrazole also completely abolishes CEST-MRI signal (Panel D). Raw data points (S/So are shown as black circles), exchangeable proton and water Lorentzian curves, and CEST-MRI signal production MTRasym (%), are also shown. All Z-spectra are obtained at 37° C. and pH 7.4 with 40 mM compound solutions in 10:1 PBS:D2O unless otherwise indicated.
Electron donating (OH, OCH3) and electron-withdrawing (I, SO3, NO2) substituents were appended at the 5-position of N-amino anthranilic acid (compounds 2b-2f), both acetaldehyde (4b-4f) or 2-formylbenzenesulfonic acid-derived hydrazones (3b-3f) were prepared, and Z-spectra were acquired in 1:10 D2O:PBS at pH 7.4 on a 300 MHz NMR.
In this way, per molar signal output could be compared across hydrazone series to examine electronic contributions to Hydrazo-CEST.
(§4) The MRI contrast produced by CEST probes is dependent upon voxel-wise concentration, however previous investigations have reported non-linear concentration relationships for CEST contrast agents. In order to evaluate this dependence for Hydrazo-CEST compounds, Z-spectra were acquired for acetaldehyde (4b-4f) and 2-formylbenzenesulfonic acid-derived hydrazones (3b-3f) on a 300 MHz NMR from 5 mM to 40 mM, or the maximum solubility of the compound in neutral buffer. The dynamic range for Hydrazo-CEST signal production from each compound was then plotted using the maximum signal for each compound (6.4±0.4 ppm). Within the series of acetaldehyde-derived hydrazones, the 5-methoxy- (4f) and 5-hydroxy-substituted (4e) analogs had the broadest dynamic range for imaging signal, with the 5-methoxy-derivative showing the higher absolute % MTRasym and the most linear concentration-dependent signal production (R^2=0.98).
Z-spectra were acquired on a 300 MHz NMR in 10:1 PBS:D2O at 37° C., pH 7.4, at 40 mM, or the indicated concentration providing maximum solubility. Hydrazones were formed between 2f and (Panel A) 3-aminopropanal, (Panel B) crotonaldehyde, (Panel C) glyceraldehyde, and (Panel D) pyruvate.

[6] = Hydrazo-CEST MRI phantom imaging (3 T and 7 T) and in situ hydrazone formation
Description: In the upper panel, a Phantom image and Z-spectra of hydrazine 2f and hydrazones 3f and 4f were acquired at the indicated field strength, 37° C., pH 7.4, and 40 mM concentration.
Values indicate the % MTRasym±the standard deviation of the off-resonance measurements once the system had reached steady state.
The kinetics of Hydrazo-CEST signal production through hydrazone formation were also evaluated in the MRI at 37° C. in 1×PBS at pH=7.4 (FIG. 28). Either PBS or a PBS solution of 2-formylbenzenesulfonic acid at a final concentration of 20 mM was injected into the imaging phantom, and Z-spectra were acquired every 4.5 min to monitor hydrazone formation.
A single saturation peak at 6.4 ppm was observed 4.5 min after aldehyde injection. […] This MRI data confirms that Hydrazo-CEST probes are rapidly activated by aldehydes under physiological conditions, and are readily detectable by 7 T MRI. Both hydrazine and hydrazone functionalities are utilized in medications broadly spanning indications from anti-infectives and anti-parasitics, to anti-cancer agents.

[7] = Preliminary in vitro toxicity assays
[8] = Solubility of hydrazones in buffer; format: physicochemical
Description: as §4
In addition to local probe concentrations, micro-environmental pH can modify CEST signal production, as pH directly impacts ksw. The effect of pH on % MTRasym was evaluated for the unsubstituted, 5-hydroxy-, and 5-methoxy-substituted hydrazones derived from acetaldehyde (4a, 4e, 4f) and 2-formylbenzenesulfonic acid (3a, 3e, 3f). […] The hydroxy- and methoxy-substituted aryl-hydrazones (3e, 3f) gave better CEST signal production from pH 6.5-8.0, but both were insoluble at 40 mM at pH 6.0. The differential pH responses associated with the Hydrazo-CEST probes studied are justified by the higher predicted electron density around the ring-proximal nitrogen of the aliphatic versus aromatic hydrazones, which would favor the protonated form of the hydrazo moiety at higher pH values.

[9] = Hydrazone product stability (spectrophotometric, HPLC); format: physicochemical; conditions: 1×PBS, 37° C.
Description: as §1
The carboxylic acid ortho to the hydrazine is critical to the stability of the formed hydrazone product. All reactions were performed in 1×PBS at 37° C., and points represent mean±s.d. for n=3 trials.
as §3

[10] = Trapping of MDA by N-amino anthranilic acid probe, monitored by 1H-NMR and fluorimetry; conditions: incubation of NA^3 acid probe and MDA, 1H-NMR
Description: N-amino anthranilic acids can act as specific sensors for malondialdehyde. N-amino anthranilic acid reacts rapidly with MDA to form a fluorescent pyrazole. A proposed 2-step reaction scheme for the formation of the MDA-derived pyrazole (5) from 5-methoxy-N-amino anthranilic acid (3) is shown:
The formation of the MDA-derived pyrazole ring was monitored by ^1H-NMR. Hydrazone (4) formation happens within less than 1 min of incubation of the NA^3 acid probe and MDA. The pyrazole product (5) forms rapidly as well, and reaches completion within 20 min. The fluorescence ‘turn-on’ of the N-amino anthranilic acid probe is specific for MDA.

[11] = Time-lapse imaging of acetaldehyde-derived hydrazone formation in PBS; conditions: room temperature
Source text: N-Amino anthranilic esters can be fast-reacting aldehyde sensors. N-amino anthranilate methyl ester reacts rapidly with endogenous reactive aldehydes. The reaction of 5-methoxy-N-amino anthranilate methyl ester (1) with a reactive aldehyde results in the formation of […] in PBS at room temperature is shown: […]

[12] = reaction with butanal, 1:10 DMF:PBS solution; cited from earlier work
[13] = test system: hippocampal CA3 neurodegeneration; conditions: TMT rat model, Wood et al. (2006); cited from earlier work

Compound: COc1ccc(NN)c(C(=O)O)c1 [Compound 2f, 5-methoxy N-amino anthranilic acid]
- kobs [1]: 0.012 ± 0.001 min⁻¹
- kobs [2]: 0.112 ± 0.03 min⁻¹
- reaction completion (hydrazone formation) ([2]; within 30 min of initiation): ~90%
- kobs ([3]; pseudo-first order, 37° C., carbonyl acetone): 0.017 ± 0.0004 min⁻¹
- product formation ([3]; reaction with acetone, 37° C. (data not shown)): < 25%
- hydrazone formation with D-glucose [4]: no hydrazone formation
- CEST-MRI signal generation (in words) [5]: little CEST-MRI signal
- maximum plateau % MTRasym ([6]; 40 mM hydrazine plus 20 mM 2-formylbenzenesulfonic acid, 37° C., 1×PBS, pH 7.4): 4.6±0.7 % MTRasym
- CEST contrast in MRI (in words) ([6]; 37° C., pH 7.4, 40 mM): produced no CEST contrast
- Hydrazo-CEST signal as share of maximal signal ([6]; within the first 4.5 min after aldehyde injection): > 50%
- in vitro toxicity [7]: initial safety

Compound: O=C(O)c1ccccc1NN=Cc1ccccc1S(=O)(=O)O [Compound 3a]
- CEST signal production [5]: ~5%

Compound: COc1ccc(NN=Cc2ccccc2S(=O)(=O)O)c(C(=O)O)c1 [Compound 3f]
- solubility ([8]; 40 mM, pH 6.0): insoluble
- stability of hydrazone product [9]: long-term stability

Compound: CC=NNc1ccccc1C(=O)O [Compound 4a]
- solubility ([8]; neutral buffer): limited solubility beyond 20 mM
- solubility ([8]; pH 6.0-8.0): completely soluble

Compound: C/C=N/Nc1ccc(OC)cc1C(=O)O [Compound 4f]
- MTRasym ([5]; 5 mM): 9%
- CEST-MRI signal generation (in words) [5]: substantial signal
- solubility ([8]; 40 mM, pH 6.5): not soluble

Compound: COc1ccc(-n2cccn2)c(C(=O)O)c1 [Compound 5]
- time to completion of pyrazole product formation [10]: ≤ 20 min
- CEST-MRI signal generation (in words) [5]: Complete abolishment of signal production

Compound: COc1ccc(N/N=C/C(O)CO)c(C(=O)O)c1 (stereo not shown) [Compound 5c]
- CEST-MRI signal generation (in words) [5]: limited signal production

Compound: COC(=O)c1cc(OC)ccc1NN [Compound 7, 5-methoxy-N-amino anthranilate methyl ester, reference compound]
- kobs [2]: 0.0008 ± 5.5e-05 min⁻¹
- time to hydrazone formation after aldehyde addition [11]: ≤ 1 s

Compound: C/C=N/Nc1ccc(OC)cc1C(=O)OC [Compound 8b, reference compound]
- CEST-MRI signal generation (in words) [5]: complete loss of the CEST effect
- CEST-MRI signal generation (in words) ([5]; listed as compound 302): prevents any CEST-MRI signal generation

Compound: COc1ccc(NN)cc1.Cl.Cl [Compound 9, 4-methoxyphenyl hydrazine dihydrochloride, reference compound]
- kobs [2]: 0.119 ± 0.02 min⁻¹

Compound: O=C(O)c1cccc(O)c1 [Compound 12, 3-Hydroxybenzoic acid, reference compound]
- CEST-MRI signal generation (in words) [5]: nearly completely abolishes signal production

Compound: NNc1ccccc1C(=O)O [Compound 101, N-amino anthranilic acid]
- pseudo-first-order rate constant (kobs) [12]: 1.5 ± 0.2 min⁻¹

Compound: O=C(O)c1cccnc1N/N=C/c1ccccc1S(=O)(=O)O [Compound 319]
- CEST signal production [5]: ~25%

Compound: ONCc1ccccc1 [N-benzylhydroxylamine]
- protection against neurodegeneration [13]: provided protection against neurodegeneration
